# Values joined by “and” are separate entries in the source; they are usually repeats but may differ in a detail not shown here. Identical values can stand only once.
# Tested on: 362531-283-R-J2-PDC complex spheroid viability
# Assay: Anticancer human tumor 362531-283-R-J2-PDC patient-derived colon adenocarcinoma cell line growth inhibition [RAS]
# Details: for viability, T/C: stronger effect = lower value
# Outline: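 Agents were tested in combination matrices in half-log decrements from a top concentration at or near clinical Cmax (10 microM if undetermined). Targets were multi-cell spheroids of tumour lines plus HUVEC and MSC stromal cells.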
# [1] = curve of first compound, second compound 0.000949 µM
# [2] = curve of first compound, second compound 0.003 µM
# [3] = curve of first compound, second compound 0.00949 µM
# [4] = curve of first compound, second compound 0.03 µM
# [5] = curve of first compound, second compound 0.0949 µM
# [6] = curve of first compound, second compound 0.3 µM
# [7] = second compound 0.000949 µM, first compound 0.00316 µM
# [8] = second compound 0.000949 µM, first compound 0.01 µM
# [9] = second compound 0.000949 µM, first compound 0.0316 µM
# [10] = second compound 0.000949 µM, first compound 0.1 µM
# [11] = second compound 0.000949 µM, first compound 0.316 µM
# [12] = second compound 0.000949 µM, first compound 1 µM
# [13] = second compound 0.003 µM, first compound 0.00316 µM
# [14] = second compound 0.003 µM, first compound 0.01 µM
# [15] = second compound 0.003 µM, first compound 0.0316 µM
# [16] = second compound 0.003 µM, first compound 0.1 µM
# [17] = second compound 0.003 µM, first compound 0.316 µM
# [18] = second compound 0.003 µM, first compound 1 µM
# [19] = second compound 0.00949 µM, first compound 0.00316 µM
# [20] = second compound 0.00949 µM, first compound 0.01 µM
# [21] = second compound 0.00949 µM, first compound 0.0316 µM
# [22] = second compound 0.00949 µM, first compound 0.1 µM
# [23] = second compound 0.00949 µM, first compound 0.316 µM
# [24] = second compound 0.00949 µM, first compound 1 µM
# [25] = second compound 0.03 µM, first compound 0.00316 µM
# [26] = second compound 0.03 µM, first compound 0.01 µM
# [27] = second compound 0.03 µM, first compound 0.0316 µM
# [28] = second compound 0.03 µM, first compound 0.1 µM
# [29] = second compound 0.03 µM, first compound 0.316 µM
# [30] = second compound 0.03 µM, first compound 1 µM
# [31] = second compound 0.0949 µM, first compound 0.00316 µM
# [32] = second compound 0.0949 µM, first compound 0.01 µM
# [33] = second compound 0.0949 µM, first compound 0.0316 µM
# [34] = second compound 0.0949 µM, first compound 0.1 µM
# [35] = second compound 0.0949 µM, first compound 0.316 µM
# [36] = second compound 0.0949 µM, first compound 1 µM
# [37] = second compound 0.3 µM, first compound 0.00316 µM
# [38] = second compound 0.3 µM, first compound 0.01 µM
# [39] = second compound 0.3 µM, first compound 0.0316 µM
# [40] = second compound 0.3 µM, first compound 0.1 µM
# [41] = second compound 0.3 µM, first compound 0.316 µM
# [42] = second compound 0.3 µM, first compound 1 µM
# 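Also: spheroids exposed to the agents for 7 days before readout.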
# 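For viability, T/C in this document: luminescence viability as percent of DMSO vehicle control wells.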
structure (smiles),measurement,setting,value
CCn1c(-c2cc(N3CCN(C)CC3)cnc2C(C)OC)c2c3cc(ccc31)-c1csc(n1)CC(NC(=O)C1CC1C)C(=O)N1CCCC(N1)C(=O)OCC(C)(C)C2 (stereo not given),"viability, T/C",compound 0.000949 µM,99% [middle of 8 runs]
same,"viability, T/C",compound 0.003 µM,101% [middle of 8 runs]
same,"viability, T/C",compound 0.00949 µM,100% [middle of 8 runs]
same,"viability, T/C",compound 0.03 µM,99.5% [middle of 8 runs]
same,"viability, T/C",compound 0.0949 µM,82.8% [middle of 7 runs]
same,"viability, T/C",compound 0.3 µM,38.5% [middle of 8 runs]
same,IC50,"compound alone, run of 07/09/2024",223 nM [middle of 8 runs]
Nc1ccn(C2OC(CO)C(O)C2(F)F)c(=O)n1 (stereo not given) + CCn1c(-c2cccnc2C(C)OC)c2c3cc(ccc31)N1CCOC(CC(NC(=O)C(C(C)C)N(C)C(=O)C3(F)CCN(C(=O)C#CC(C)(C)N(C)C)CC3)C(=O)N3CCCC(N3)C(=O)OCC(C)(C)C2)C1,IC50,[1],169 nM
same,IC50,[2],153 nM
same,IC50,[3],177 nM
same,IC50,[4],189 nM
same,IC50,[5],132 nM
same,IC50,[6],163 nM
same,"viability, T/C",[7],100%
same,"viability, T/C",[8],95.5%
same,"viability, T/C",[9],69.5%
same,"viability, T/C",[10],77.3%
same,"viability, T/C",[11],22.2%
same,"viability, T/C",[12],31.3%
same,"viability, T/C",[13],103%
same,"viability, T/C",[14],92.9%
same,"viability, T/C",[15],77.6%
same,"viability, T/C",[16],68.5%
same,"viability, T/C",[17],22.9%
same,"viability, T/C",[18],33.2%
same,"viability, T/C",[19],103%
same,"viability, T/C",[20],93.2%
same,"viability, T/C",[21],73.4%
same,"viability, T/C",[22],77.4%
same,"viability, T/C",[23],19.2%
same,"viability, T/C",[24],25.5%
same,"viability, T/C",[25],111%
same,"viability, T/C",[26],83.5%
same,"viability, T/C",[27],86.8%
same,"viability, T/C",[28],82.2%
same,"viability, T/C",[29],20.1%
same,"viability, T/C",[30],27.6%
same,"viability, T/C",[31],100%
same,"viability, T/C",[32],91.7%
same,"viability, T/C",[33],69.5%
same,"viability, T/C",[34],69.6%
same,"viability, T/C",[35],19.7%
same,"viability, T/C",[36],26.8%
same,"viability, T/C",[37],96.2%
same,"viability, T/C",[38],90%
same,"viability, T/C",[39],73.3%
same,"viability, T/C",[40],69.2%
same,"viability, T/C",[41],23.2%
same,"viability, T/C",[42],24.2%
C=CC(=O)N1CCN(c2nc(OCC3CCCN3C)nc3c(F)c(-c4nc(N)cc(C)c4C(F)(F)F)c(Cl)cc23)C(C)C1 (stereo not given) + CCn1c(-c2cccnc2C(C)OC)c2c3cc(ccc31)N1CCOC(CC(NC(=O)C(C(C)C)N(C)C(=O)C3(F)CCN(C(=O)C#CC(C)(C)N(C)C)CC3)C(=O)N3CCCC(N3)C(=O)OCC(C)(C)C2)C1,IC50,[1],> 1000 nM
same,IC50,[2],> 1000 nM
same,IC50,[3],> 1000 nM
same,IC50,[4],> 1000 nM
same,IC50,[5],> 1000 nM
same,IC50,[6],> 1000 nM
same,"viability, T/C",[7],98.9%
same,"viability, T/C",[8],106%
same,"viability, T/C",[9],106%
same,"viability, T/C",[10],97%
same,"viability, T/C",[11],107%
same,"viability, T/C",[12],95.2%
same,"viability, T/C",[13],111%
same,"viability, T/C",[14],104%
same,"viability, T/C",[15],98.5%
same,"viability, T/C",[16],92.4%
same,"viability, T/C",[17],96.1%
same,"viability, T/C",[18],91.8%
same,"viability, T/C",[19],101%
same,"viability, T/C",[20],122%
same,"viability, T/C",[21],97.2%
same,"viability, T/C",[22],100%
same,"viability, T/C",[23],101%
same,"viability, T/C",[24],98.8%
same,"viability, T/C",[25],100%
same,"viability, T/C",[26],117%
same,"viability, T/C",[27],87%
same,"viability, T/C",[28],96.2%
same,"viability, T/C",[29],101%
same,"viability, T/C",[30],106%
same,"viability, T/C",[31],93.6%
same,"viability, T/C",[32],95.7%
same,"viability, T/C",[33],103%
same,"viability, T/C",[34],101%
same,"viability, T/C",[35],95.6%
same,"viability, T/C",[36],113%
same,"viability, T/C",[37],100%
same,"viability, T/C",[38],109%
same,"viability, T/C",[39],108%
same,"viability, T/C",[40],103%
same,"viability, T/C",[41],94.4%
same,"viability, T/C",[42],100%
Nc1ccn(C2OC(CO)C(O)C2(F)F)c(=O)n1 (stereo not given) + C#Cc1c(F)ccc2cc(O)cc(-c3ncc4c(N5CC6CCC(C5)N6)nc(OCC56CCCN5CC(F)C6)nc4c3F)c12,IC50,"curve of first compound, second compound 0.0316 µM",170 nM
same,IC50,"curve of first compound, second compound 0.1 µM",164 nM
same,IC50,"curve of first compound, second compound 0.316 µM",118 nM
same,IC50,"curve of first compound, second compound 1 µM",74.4 nM
same,IC50,"curve of first compound, second compound 3.16 µM",57.6 nM
same,IC50,"curve of first compound, second compound 10 µM",< 3.16 nM
same,"viability, T/C","second compound 0.0316 µM, first compound 0.00316 µM",101%
same,"viability, T/C","second compound 0.0316 µM, first compound 0.01 µM",104%
same,"viability, T/C","second compound 0.0316 µM, first compound 0.0316 µM",81%
same,"viability, T/C","second compound 0.0316 µM, first compound 0.1 µM",72.6%
same,"viability, T/C","second compound 0.0316 µM, first compound 0.316 µM",20.5%
same,"viability, T/C","second compound 0.0316 µM, first compound 1 µM",26.8%
same,"viability, T/C","second compound 0.1 µM, first compound 0.00316 µM",104%
same,"viability, T/C","second compound 0.1 µM, first compound 0.01 µM",97.1%
same,"viability, T/C","second compound 0.1 µM, first compound 0.0316 µM",85.5%
same,"viability, T/C","second compound 0.1 µM, first compound 0.1 µM",72.6%
same,"viability, T/C","second compound 0.1 µM, first compound 0.316 µM",15.2%
same,"viability, T/C","second compound 0.1 µM, first compound 1 µM",24.4%
same,"viability, T/C","second compound 0.316 µM, first compound 0.00316 µM",92.5%
same,"viability, T/C","second compound 0.316 µM, first compound 0.01 µM",92.4%
same,"viability, T/C","second compound 0.316 µM, first compound 0.0316 µM",84.1%
same,"viability, T/C","second compound 0.316 µM, first compound 0.1 µM",56.4%
same,"viability, T/C","second compound 0.316 µM, first compound 0.316 µM",16.5%
same,"viability, T/C","second compound 0.316 µM, first compound 1 µM",17.5%
same,"viability, T/C","second compound 1 µM, first compound 0.00316 µM",76.9%
same,"viability, T/C","second compound 1 µM, first compound 0.01 µM",79.5%
same,"viability, T/C","second compound 1 µM, first compound 0.0316 µM",66.8%
same,"viability, T/C","second compound 1 µM, first compound 0.1 µM",45.5%
same,"viability, T/C","second compound 1 µM, first compound 0.316 µM",13.8%
same,"viability, T/C","second compound 1 µM, first compound 1 µM",17.5%
same,"viability, T/C","second compound 3.16 µM, first compound 0.00316 µM",61.1%
same,"viability, T/C","second compound 3.16 µM, first compound 0.01 µM",62.6%
same,"viability, T/C","second compound 3.16 µM, first compound 0.0316 µM",61.3%
same,"viability, T/C","second compound 3.16 µM, first compound 0.1 µM",39.9%
same,"viability, T/C","second compound 3.16 µM, first compound 0.316 µM",14.8%
same,"viability, T/C","second compound 3.16 µM, first compound 1 µM",12.8%
same,"viability, T/C","second compound 10 µM, first compound 0.00316 µM",54.7%
same,"viability, T/C","second compound 10 µM, first compound 0.01 µM",45.1%
same,"viability, T/C","second compound 10 µM, first compound 0.0316 µM",41.7%
same,"viability, T/C","second compound 10 µM, first compound 0.1 µM",15.1%
same,"viability, T/C","second compound 10 µM, first compound 0.316 µM",18.1%
same,"viability, T/C","second compound 10 µM, first compound 1 µM",16.2%
CCC(CC)c1cc(NC2CCC(N)C2)n2nccc2n1 (stereo not given),"viability, T/C",compound 0.0316 µM,106% [middle of 4 runs]
same,"viability, T/C",compound 0.1 µM,94% and 100% and 104% (2×)
same,"viability, T/C",compound 0.316 µM,101% [middle of 4 runs]
same,"viability, T/C",compound 1 µM,94.1% [middle of 4 runs]
same,"viability, T/C",compound 3.16 µM,74.8% [middle of 4 runs]
same,"viability, T/C",compound 10 µM,3.99% [middle of 4 runs]
same,IC50,curve of compound,4.62 µM [middle of 4 runs]
